# According to PubChem BioAssay AID248 (DTP/NCI, 2004):
# Where “and” joins values, the source holds several entries; their conditions need not be identical. Equal values may be shown once. Inconclusive results and toxic doses are left out. Peptide text beside a SMILES is read from it.
# Tested on: L1210 leukemia ip in BDF1 mice, survival T/C
# Assay: NCI In Vivo Anticancer Drug Screen. Data for tumor model L1210 Leukemia (intraperitoneal) in B6D2F1 (BDF1) mice
# Details: endpoint: mean survival time, higher = longer survival
# Method in brief: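 Transplanted-tumor mice were given test agent; controls received vehicle only. Survival readings from the two groups were divided (treated over control).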
# [1] = dose: 50.0 mg/kg/injection, schedule: Q04DX003 (ip), vehicle: Klucel (hydroxypropylcellulose) (HPC)
# [2] = dose: 100.0 mg/kg/injection, schedule: Q04DX003 (ip), vehicle: Klucel (hydroxypropylcellulose) (HPC)
# [3] = dose: 200.0 mg/kg/injection, schedule: Q04DX003 (ip), vehicle: Klucel (hydroxypropylcellulose) (HPC)
# [4] = dose: 100.0 mg/kg/injection, schedule: Q01DX001 (ip), vehicle: saline
# [5] = dose: 200.0 mg/kg/injection, schedule: Q01DX001 (ip), vehicle: saline
# [6] = dose: 400.0 mg/kg/injection, schedule: Q01DX001 (ip), vehicle: saline
# [7] = dose: 100.0 mg/kg/injection, schedule: Q01DX009 (ip), vehicle: Klucel (hydroxypropylcellulose) (HPC)
# [8] = dose: 200.0 mg/kg/injection, schedule: Q01DX009 (ip), vehicle: Klucel (hydroxypropylcellulose) (HPC)
# [9] = dose: 400.0 mg/kg/injection, schedule: Q01DX009 (ip), vehicle: Klucel (hydroxypropylcellulose) (HPC)
# [10] = dose: 100.0 mg/kg/injection, schedule: Q04DX003 (ip), vehicle: saline with Tween-80
# [11] = dose: 200.0 mg/kg/injection, schedule: Q04DX003 (ip), vehicle: saline with Tween-80
# [12] = dose: 400.0 mg/kg/injection, schedule: Q04DX003 (ip), vehicle: saline with Tween-80
# [13] = dose: 100.0 mg/kg/injection, schedule: Q01DX009 (ip), vehicle: acetone
# [14] = dose: 100.0 mg/kg/injection, schedule: Q01DX001 (ip), vehicle: saline with Tween-80
# [15] = dose: 200.0 mg/kg/injection, schedule: Q01DX001 (ip), vehicle: saline with Tween-80
# [16] = dose: 400.0 mg/kg/injection, schedule: Q01DX001 (ip), vehicle: saline with Tween-80
structure (smiles),measurement,setting,value
O=C(Nc1cccc(C(=O)Nc2ccc(C3=NCCN3)cc2)c1)Nc1cccc(C(=O)Nc2ccc(C3=NCCN3)cc2)c1,T/C,"dose: 15.0 mg/kg/injection, schedule: Q01DX Z (ip), vehicle: methylcellulose (MC)",94 % of control
same,T/C,"dose: 30.0 mg/kg/injection, schedule: Q01DX Z (ip), vehicle: methylcellulose (MC)",105 % of control
same,T/C,"dose: 60.0 mg/kg/injection, schedule: Q01DX Z (ip), vehicle: methylcellulose (MC)",100 % of control
same,T/C,"dose: 120.0 mg/kg/injection, schedule: Q01DX Z (ip), vehicle: methylcellulose (MC)",102 % of control
same,T/C,"dose: 125.0 mg/kg/injection, schedule: Q01DX Z (ip), vehicle: water",93 % of control
same,T/C,"dose: 250.0 mg/kg/injection, schedule: Q01DX Z (ip), vehicle: water",102 % of control
same,T/C,"dose: 500.0 mg/kg/injection, schedule: Q01DX Z (ip), vehicle: water",101 % of control
CCC(=O)c1ccc(N2CCOCC2)cc1,T/C,[1],97 % of control
same,T/C,"dose: 100.0 mg/kg/injection, schedule: Q01DX001 (ip), vehicle: other",107 % of control
same,T/C,[2],101 % of control
same,T/C,"dose: 200.0 mg/kg/injection, schedule: Q01DX001 (ip), vehicle: other",107 % of control
same,T/C,[3],108 % of control
same,T/C,"dose: 400.0 mg/kg/injection, schedule: Q01DX001 (ip), vehicle: other",107 % of control
CCOCCOC(=O)c1ccc(C(N)=NC2CCCCC2)cc1,T/C,[4],100 % of control
same,T/C,[5],102 % of control
same,T/C,[6],90 % of control
C=C(C)C1Cc2c(ccc3c(=O)c4c(oc23)COc2cc(OC)c(OC)cc2-4)O1 (stereo not drawn),T/C,[7],90 % of control
same,T/C,[8],93 % of control
same,T/C,[9],95 % of control
O=C(NCCCCC(Cl)C(=O)O)c1ccccc1 (stereo not drawn),T/C,[10],100 % of control
same,T/C,[11],100 % of control
same,T/C,[12],100 % of control
CCOc1ccc(OCC)c(NC(=O)c2ccccc2)c1,T/C,[10],94 % of control
same,T/C,[11],92 % of control
same,T/C,[12],95 % of control
Cc1ccc2oc(=O)cc(C)c2c1,T/C,"dose: 100.0 mg/kg/injection, schedule: Q01DX001 (ip), vehicle: carboxymethylcellulose (CMC)",91 % of control
same,T/C,"dose: 200.0 mg/kg/injection, schedule: Q01DX001 (ip), vehicle: carboxymethylcellulose (CMC)",96 % of control
same,T/C,"dose: 400.0 mg/kg/injection, schedule: Q01DX001 (ip), vehicle: carboxymethylcellulose (CMC)",93 % of control
O=C(Nc1ccccc1C(F)(F)F)c1ccccc1Cl,T/C,[13],98 % of control
same,T/C,"dose: 200.0 mg/kg/injection, schedule: Q01DX009 (ip), vehicle: acetone",93 % of control
same,T/C,"dose: 400.0 mg/kg/injection, schedule: Q01DX009 (ip), vehicle: acetone",93 % of control
O=C(O)C1(Br)CC2CC1C1C2C2(Cl)C(Cl)=C(Cl)C1(Cl)C2(Cl)Cl (stereo not drawn),T/C,"dose: 75.0 mg/kg/injection, schedule: Q01DX001 (ip), vehicle: other",96 % of control
same,T/C,"dose: 150.0 mg/kg/injection, schedule: Q01DX001 (ip), vehicle: other",96 % of control
same,T/C,"dose: 300.0 mg/kg/injection, schedule: Q01DX001 (ip), vehicle: other",96 % of control
CC(O)C(NC(=O)C(N)CCCN=C(N)N)C(=O)NC(Cc1ccccc1)C(=O)O (stereo not drawn) (H-Arg-Thr-Phe-OH; configuration not given here),T/C,"dose: 18.75 mg/kg/injection, schedule: Q04DX002 (ip), vehicle: saline with Tween-80",101 % of control
same,T/C,"dose: 37.5 mg/kg/injection, schedule: Q04DX002 (ip), vehicle: saline with Tween-80",97 % of control
same,T/C,"dose: 75.0 mg/kg/injection, schedule: Q04DX002 (ip), vehicle: saline with Tween-80",93 % of control
same,T/C,"dose: 150.0 mg/kg/injection, schedule: Q04DX002 (ip), vehicle: saline with Tween-80",97 % of control
O=C(O)c1ccc(CCc2ccc(Cl)c(S(=O)(=O)F)c2)cc1,T/C,[14],94 % of control
same,T/C,[15],92 % of control
same,T/C,[16],91 % of control
Cc1c2c(n(C)c1C(=O)N1CCOCC1)CCCC2=O,T/C,"dose: 100.0 mg/kg/injection, schedule: Q04DX003 (ip), vehicle: carboxymethylcellulose (CMC)",101 % of control
same,T/C,"dose: 200.0 mg/kg/injection, schedule: Q04DX003 (ip), vehicle: carboxymethylcellulose (CMC)",98 % of control
same,T/C,"dose: 400.0 mg/kg/injection, schedule: Q04DX003 (ip), vehicle: carboxymethylcellulose (CMC)",98 % of control
O=C1CCCCCCCCCCCCCC1,T/C,"dose: 100.0 mg/kg/injection, schedule: Q04DX002 (ip), vehicle: Klucel (hydroxypropylcellulose) (HPC)",102 % of control
same,T/C,"dose: 200.0 mg/kg/injection, schedule: Q04DX002 (ip), vehicle: Klucel (hydroxypropylcellulose) (HPC)",102 % of control
same,T/C,"dose: 400.0 mg/kg/injection, schedule: Q04DX002 (ip), vehicle: Klucel (hydroxypropylcellulose) (HPC)",102 % of control
COc1ccccc1N1CCN(CC(O)COc2ccccc2C(C)=O)CC1 (stereo not drawn),T/C,"dose: 25.0 mg/kg/injection, schedule: Q01DX009 (ip), vehicle: saline with Tween-80",107 % of control
same,T/C,"dose: 50.0 mg/kg/injection, schedule: Q01DX009 (ip), vehicle: saline with Tween-80",105 % of control
same,T/C,"dose: 100.0 mg/kg/injection, schedule: Q01DX009 (ip), vehicle: saline with Tween-80",109 % of control
same,T/C,[10],96 % of control
CCCCSC1CCCC1,T/C,"dose: 50.0 mg/kg/injection, schedule: Q01DX009 (ip), vehicle: acetone",98 % of control
same,T/C,[4],89 % of control
same,T/C,[13],110 % of control
same,T/C,[5],92 % of control
COC(=O)c1cc(C)c(Br)c(OC)c1,T/C,[7],98 % of control
same,T/C,[2],94 % of control
same,T/C,[8],100 % of control
same,T/C,[3],111 % of control
same,T/C,"dose: 400.0 mg/kg/injection, schedule: Q04DX003 (ip), vehicle: Klucel (hydroxypropylcellulose) (HPC)",100 % of control
O=C1c2cccc3cccc(c23)C1(c1ccccc1)c1ccccc1,T/C,"dose: 100.0 mg/kg/injection, schedule: Q01DX009 (ip), vehicle: saline",100 % of control
same,T/C,"dose: 200.0 mg/kg/injection, schedule: Q01DX009 (ip), vehicle: saline",100 % of control
same,T/C,"dose: 400.0 mg/kg/injection, schedule: Q01DX009 (ip), vehicle: saline",111 % of control
O=P(Cc1ccccc1)(Cc1ccccc1)c1ccccc1,T/C,"dose: 25.0 mg/kg/injection, schedule: Q04DX003 (ip), vehicle: Klucel (hydroxypropylcellulose) (HPC)",102 % of control
same,T/C,[1],118 % of control
same,T/C,[2],95 % of control and 104 % of control
CCCCCCC1CCC(C(=O)O)CC1 (stereo not drawn),T/C,"dose: 100.0 mg/kg/injection, schedule: Q01DX001 (ip), vehicle: Klucel (hydroxypropylcellulose) (HPC)",96 % of control
same,T/C,[7],98 % of control
same,T/C,"dose: 200.0 mg/kg/injection, schedule: Q01DX001 (ip), vehicle: Klucel (hydroxypropylcellulose) (HPC)",97 % of control
same,T/C,[8],98 % of control
same,T/C,"dose: 400.0 mg/kg/injection, schedule: Q01DX001 (ip), vehicle: Klucel (hydroxypropylcellulose) (HPC)",97 % of control
same,T/C,[9],89 % of control
Cc1cc(Cl)nc2ccc(Cc3ccc(Cl)cc3)cc12,T/C,[4],97 % of control
same,T/C,[5],92 % of control
same,T/C,[6],93 % of control
O=C(c1ccco1)c1cc(Cl)c(Cl)cc1Cl,T/C,[14],100 % of control
same,T/C,[15],95 % of control
same,T/C,[16],98 % of control
CCOC(=O)c1ccc2ccccc2n1,T/C,"dose: 75.0 mg/kg/injection, schedule: Q01DX001 (ip), vehicle: saline",109 % of control
same,T/C,"dose: 150.0 mg/kg/injection, schedule: Q01DX001 (ip), vehicle: saline",96 % of control
O=C1C(N2CCOCC2)=C(c2ccccc2)c2ccccc21,T/C,"dose: 7.3 mg/kg/injection, schedule: Q01DX009 (ip), vehicle: other",94 % of control and 103 % of control
same,T/C,"dose: 11.0 mg/kg/injection, schedule: Q01DX009 (ip), vehicle: other",96 % of control and 100 % of control
same,T/C,"dose: 12.5 mg/kg/injection, schedule: Q01DX009 (ip), vehicle: other",350 % of control
same,T/C,"dose: 16.5 mg/kg/injection, schedule: Q01DX009 (ip), vehicle: other",96 % of control and 100 % of control
same,T/C,"dose: 37.5 mg/kg/injection, schedule: Q01DX009 (ip), vehicle: other",96 % of control and 101 % of control
same,T/C,"dose: 50.0 mg/kg/injection, schedule: Q01DX009 (ip), vehicle: other",98 % of control
same,T/C,"dose: 100.0 mg/kg/injection, schedule: Q01DX009 (ip), vehicle: other",88 % of control
same,T/C,"dose: 200.0 mg/kg/injection, schedule: Q01DX009 (ip), vehicle: other",93 % of control
